In patent publication US8236339B2, “Therapeutic delivery of carbon monoxide” (priority 2001, dated 2012):
Entries after “also recorded” stand apart in the source; their conditions may differ.

How the values were obtained:
[1] = L-NAME-induced increase in mean arterial pressure in anaesthetised Lewis rats; type: in vivo, rat; conditions: L-NAME 30 μmol/kg i.v.; [Ru(CO)3Cl2]2 60 μmol/kg i.v. 1 h before; hemin 75 μmol/kg i.p. 24 h before; SnPPIX 40 μmol/kg i.p.
Procedure: Lewis rats (280-350 g) were anaesthetised by intramuscular injection of 1 ml/kg Hypnorm (fentanyl 0.315 mg/ml and fluanisone 10 mg/ml) followed 5 min later by an intraperitoneal injection of 5 mg/kg diazepam. Specially designed femoral artery and venous catheters were then surgically implanted as previously described (40). The arterial cannula was connected to a Grass pressure transducer and blood pressure monitored continuously using a polygraph recorder. Experiments were conducted on anaesthetized animals and recordings were made within 30 min of the surgical procedure.
Control rats (vehicle-treated) and animals that were pre-treated with hemin (75 μmol/kg, i.p) 24 h prior to blood pressure monitoring were then administered with an intravenous injection of 30 μmol/Kg L-NAME to elicit an increase in mean arterial pressure. The extent of blood pressure increase by L-NAME was also monitored over time in hemin-treated animals that received SnPPIX (40 μmol/kg, i.p.) and in control rats previously injected with [Ru(CO)3Cl2]2 (60 μmol/kg, i.v.). In these two groups, SnPPIX or [Ru(CO)3Cl2]2 were administered to animals 1 h prior to L-NAME injection.

isolated rat hearts = conditions: for effect on L-NAME-mediated vasoconstriction / rise in CPP: L-NAME 25 μM perfusion
Procedure: Langendorff heart preparations were performed using male Lewis rats (300-350 g) as previously described by our group (35). […] (pH 7.4). Coronary perfusion pressure (CPP), a parameter indicative of coronary vessel contractility, was continuously measured by a pressure transducer connected to the aortic cannula and data analyzed with an Acknowledge software (BIOPAC System Inc.).
Hearts removed either from control rats (vehicle-treated) or from animals that were pre-treated with the heme oxygenase-1 inducer hemin (75 μmol/kg, i.p.) the day before, were initially equilibrated for 20 min on the Langendorff apparatus and then perfused with L-NAME (25 μM final concentration) to elicit vasoconstriction. The extent of CPP increase by L-NAME was also monitored over time in hemin-treated animals that received a heme oxygenase inhibitor (SnPPIX, 40 μmol/kg) 1 h prior to heart excision and in control hearts that were perfused with buffer supplemented with [Mn2(CO)10] (13 μM final concentration). Since [Mn2(CO)10] releases CO only by photodissociation, Krebs buffer containing [Mn2(CO)10] was exposed to a cold light source immediately before entering the aortic cannula.

[2] = test system: deoxymyoglobin (deoxy-Mb); assay: Myoglobin assay: conversion of deoxy-Mb to MbCO on direct addition of metal carbonyl; type: biochemical, horse; conditions: for MbCO formation / CO release when added directly to deoxy-Mb solution: direct addition to myoglobin solution (66 μM), no light
Procedure: The release of CO from metal carbonyl complexes was assessed spectrophotometrically by measuring the conversion of deoxymyoglobin (deoxy-Mb) to carbonmonoxy myoglobin (MbCO). MbCO has a distinctive absorption spectrum between 500 and 600 nm, and changes at 540 nm were used to quantify the amount of CO liberated. Myoglobin solutions (66 μM final concentration) were prepared freshly by dissolving the protein in 0.04 M phosphate buffer (pH 6.8). Sodium dithionite (0.1%) was added to convert myoglobin to deoxy-Mb prior to each reading. All the spectra were measured using a Helios a spectrophotometer.
Various metal carbonyl complexes were tested for their ability to elicit MbCO formation when added directly to a deoxy-Mb solution. To different extents, [Ru(CO)3Cl2]2, [Ru(CO)2(DMSO)2Cl2], [Ru(CO)3Cl2(cytosine)] and […] all released CO when added directly to the Mb solution.
The metal carbonyl complex was solubilized in DMSO (9.7 mM stock solution), aliquots of 2 to 32 μl were added directly to 1 ml of deoxy-Mb solutions (66 μM) and absorption spectrum determined immediately after mixing the samples by inversion.

[3] = test system: aortic rings pre-contracted with phenylephrine; assay: Relaxation of isolated aortic rings pre-contracted with phenylephrine; design: species or system rat; conditions: for vasodilatory effect on pre-contracted aortic rings (in words): consecutive additions; for % Relaxation, 1st addition / % Relaxation, 2nd addition / % Relaxation, 3rd addition: cumulative doses, phenylephrine 3 μM
Procedure: Transverse ring sections of thoracic aorta were isolated from male Lewis rats and suspended under a 2 g tension in an organ bath containing oxygenated Krebs-Henseleit buffer at 37° C. as previously described (23). The relaxation response to cumulative doses of metal carbonyl (dissolved in DMSO—see section 2) was assessed in aortic rings pre-contracted with phenylephrine (3 μM). Control rings were similarly treated by adding equal doses of DMSO (vehicle) to the organ bath.

[4] = Systemic blood pressure and heart rate in anaesthetised Sprague-Dawley rats; type: in vivo, rat; conditions: for HR, 60 μmol.kg^−1 / MAP, 60 μmol.kg^−1: directly after i.v. bolus 60 μmol/kg (cumulative 100); for HR, Baseline / MAP, Baseline: just before infusion of the compound
Procedure: Adult male Sprague-Dawley rats (280-350 g, 8-10 weeks of age) were bred in-house at the Northwick Park Institute for Medical Research (Harrow, UK). Rats were housed in groups of 3 in cages under a 12 h cycle of day/night, with free access to drinking water and fed ad libitum. All surgical procedures were performed in compliance with U.K. Home Office regulations. Rats were anaesthetised in a polycarbonate chamber in a stream of Enflurane™ (Abbot, UK) in oxygen before being transferred onto a mask and continuously supplied with Enflurane™ throughout the experiment with an anaesthetic machine (Aimed, UK). During the surgical procedure the rats were kept at a constant body temperature of 37° C. using a heat pad positioned underneath the operating surface. Specially designed femoral artery and venous catheters were then surgically implanted as previously described (see ref. 40). The catheter in the artery was connected via a luer connector and a three-way tap to a pressure transducer (Gould model P23ID, Statham, USA) for continuous mean arterial pressure (MAP) and heart rate (HR) monitoring. A purpose-built tail-cuff pressure transducer (ADInstruments, UK) was also placed on the tail of the rat and pressure transducer and tail cuff were connected to a polygraph recorder (Grass, Model 7D, Astra-med, UK) pre-calibrated in millimeters of mercury (mmHg). An analogue output provided data for a computer-based data acquisition system (PowerLab™, ADInstruments, UK). The computer-based system was set to record mean arterial pressure (MAP), in mmHg, and heart rate (HR), in beats/min (bpm), for the duration of the experiment. […] Once a stable pressure had been reached, each catheter was flushed with saline containing heparin and no further changes were made to the anaesthetic supply. Ru(CO)3Cl(glycinato) (CO-RM-3) was prepared in stock solutions of 20, 60 and 120 μmoles·ml^−1 by solubilizing the compound in saline. […] CO-RM-3 (or the negative control) was then infused into the animal via the femoral vein catheter as a bolus so that the final concentration infused was 10, 30 or 60 μmoles·kg^−1 body weight. Throughout the experiment MAP and HR were continuously recorded and monitored. Although concentrations of 10, 30 and 60 μmoles·kg^−1 were infused into each animal, the resulting concentrations in the animal were cumulative. Therefore, the final concentration attained in the animal was 10, 40 and 100 μmoles·kg^−1, respectively.
The results are presented in Table 2, where the data shown represents samples taken at baseline (just before infusion of the compound) and directly after administration of 10, 30 and 60 μmoles·kg^−1 of the compound. All data are mean i SEM. n=3 independent experiments. *P<0.05 vs. baseline.

[5] = test system: Rat vascular smooth muscle cells; assay: Cell viability of vascular smooth muscle cells (colorimetric assay); type: cell-based
Procedure: Rat vascular smooth muscle cells were obtained from the Coriell Cell Repository (Camden, N.J., USA) and grown in Dulbecco's […] (MEM) supplemented with 20% foetal calf serum, 2×MEM vitamins, 2×MEM non-essential and essential amino acids, penicillin (100 units/ml) and streptomycin (0.1 mg/ml). Confluent cells were treated with different concentrations of metal carbonyl (introduced as DMSO solution—see section B) for various times and cell viability was assessed using a colorimetric assay kit from Promega (Madison, Wis., USA) as previously described (47) after 3 or 24 h incubation, or after 3 h exposure to the agents followed by 21 h incubation in complete media. Results are expressed as the mean±s.e.m. of 6 independent experiments and differences were considered statistically significant at P<0.05 (*).

[6] = directly after i.v. bolus 10 μmol/kg
[7] = directly after i.v. bolus 30 μmol/kg (cumulative 40)

| Compound | effect on L-NAME-induced increase in blood pressure [1] | MbCO formation / CO release when added directly to deoxy-Mb solution [2] | vasodilatory effect on pre-contracted aortic rings (in words) [3] | % Relaxation, 1st addition [3] [%] | % Relaxation, 2nd addition [3] [%] | % Relaxation, 3rd addition [3] [%] | other results |
| --- | --- | --- | --- | --- | --- | --- | --- |
| C=Cc1c2[n-]c(c1C)/C=c1\[n-]/c(c(C)c1C=C)=C\c1[n-]c(c(CCC(=O)O)c1C)C=c1[n-]/c(c(C)c1CCC(=O)O)=C\2.[Sn+4] [SnPPIX, tin protoporphyrin IX] | totally reversed | – | – | – | – | – | effect on L-NAME-mediated vasoconstriction / rise in CPP (isolated rat hearts): the effect of hemin was completely reversed |
| [Ru(CO)2(DMSO)2Cl2] | – | released CO | produced vasodilatation although the effect was less pronounced compared to [Ru(CO)3Cl2]2 | 1.6 | 16 | 35 | – |
| [Fe(SPh)2(2,2′-bipyridine)(CO)2] | – | did not release any detectable CO to myoglobin; also recorded: No MbCO was detected | very effective in promoting vasorelaxation | 50.8 | 60.5 | 75 | – |
| [Fe(SPh)2(H2NCH2CH2NH2)(CO)2] | – | No MbCO was detected | less evident | 11 | 24.6 | 29.3 | – |
| CS(C)=O.CS(C)=O.CS(C)=O.CS(C)=O.[Cl][Ru][Cl] [Cis-RuCl2(DMSO)4, reference compound] | – | – | – | – | – | – | effects on HR or MAP (in words) ([4]; 10, 30 or 60 μmoles·kg^−1): no significant effects on either HR or MAP; marginal increase in MAP during the administration of each bolus ([4]; believed to be a volume effect, also seen with saline): 5.5±1 mmHg; HR, 10 μmol.kg^−1 [4, 6]: 255 ± 6 bpm; MAP, 10 μmol.kg^−1 [4, 6]: 82 ± 4 mmHg; HR, 30 μmol.kg^−1 [4, 7]: 256 ± 8 bpm; MAP, 30 μmol.kg^−1 [4, 7]: 79 ± 5 mmHg; HR, 60 μmol.kg^−1 [4]: 256±9 bpm; MAP, 60 μmol.kg^−1 [4]: 81±4 mmHg; HR, 60 μmol.kg^−1 ([4]; listed as Cts-RuCl2(DMSO)4): 256 ± 9 bpm; MAP, 60 μmol.kg^−1 ([4]; listed as Cts-RuCl2(DMSO)4): 81± 4 mmHg; HR, Baseline [4]: 257±7 bpm; MAP, Baseline [4]: 80±2 mmHg; HR, Baseline ([4]; listed as Cts-RuCl2(DMSO)4): 257 ± 7 bpm; MAP, Baseline ([4]; listed as Cts-RuCl2(DMSO)4): 80 ± 2 mmHg |
| COC(=O)[C@@H](N)CCCNC(=N)N[N+](=O)[O-] [L-NAME, N^G-nitro-L-arginine methyl ester] | rapid and significant increase in blood pressure | – | – | – | – | – | maximum increase in CPP (isolated rat hearts; L-NAME 25 μM, after 30 min): 3 fold |
| [Ru(CO)3Cl2(cytosine)] | – | released CO | did not demonstrate any effect | 3.2 | 10.3 | 12.6 | – |
| O.[Cl][Ru]([Cl])[Cl] [RuCl3, ruthenium(III) chloride hydrate, reference compound] | – | – | – | – | – | – | decrease in cell viability over time ([5]; equivalent molar concentrations of ruthenium): did not cause any appreciable decrease in cell viability |
| [C-]#[O+].[C-]#[O+].[C-]#[O+].[C-]#[O+].[C-]#[O+].[C-]#[O+].[Cl][Ru][Cl].[Cl][Ru][Cl] [[Ru(CO)3Cl2]2, tricarbonyldichlororuthenium (II) dimer] | markedly suppressed | released CO | rapid and significant vasodilatation | 49.9 ± 2.7 | 66.2 ± 3.2 | 74.1 ± 4.1 | moles of CO liberated for each mole of compound ([2]; 9.7 mM DMSO stock, 2 to 32 μl added to 1 ml deoxy-Mb 66 μM, linear regression of MbCO saturation curve): approximately 0.7 moles; cell viability ([5]; 3 h exposure followed by additional 21 h incubation in complete medium): well preserved; cytotoxicity ([5]; 3 h treatment, 0-420 μM final concentration): did not promote any detectable cytotoxicity; loss in cell viability ([5]; prolonged exposure (24 h), very high concentrations (>400 μM)): > 50%; extent of relaxation after the first addition, more than control ([3]; 222 μM final concentration): 45%; phenylephrine-induced contraction after extensive washing ([3]; after extensive washing, restored in control but not in treated vessels): produces long-lasting effects |
| manganese chloride | – | – | – | – | – | – | effect on L-NAME-mediated vasoconstriction / rise in CPP (isolated rat hearts): had no effect on myocardial CPP |
